Laboratory results taken from US10028952B2, “Methods of treating diabetes or obesity using bile acids, bile salts, and mimics thereof” (SATIOGEN PHARMACEUTICALS, INC., priority 2008, dated 2018).
Like-named read-outs stand apart in the source and are kept apart here.

Tests used:
TGR5 = target: T1, TGR5 (Homo sapiens, UniProt Q8TDU6); conditions: TGR5-transfected CHO cells; more potent than the named bile acid; cited from earlier work
T1 construct: expressed in transfected cells; host or cells: CHO cells
T1 sequence (Q8TDU6 1-330): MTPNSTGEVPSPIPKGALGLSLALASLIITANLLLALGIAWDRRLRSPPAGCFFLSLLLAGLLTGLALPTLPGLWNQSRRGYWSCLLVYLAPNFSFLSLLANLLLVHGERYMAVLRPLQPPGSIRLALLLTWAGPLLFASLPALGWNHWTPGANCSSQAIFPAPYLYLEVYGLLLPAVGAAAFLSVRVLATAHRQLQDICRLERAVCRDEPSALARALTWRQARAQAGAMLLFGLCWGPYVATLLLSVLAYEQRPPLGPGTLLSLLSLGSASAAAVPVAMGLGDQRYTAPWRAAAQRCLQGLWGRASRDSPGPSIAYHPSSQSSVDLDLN

obese human diabetics = conditions: rectal, 0.66-20.0 mmoles in 20 ml 1% carboxymethyl cellulose gel, after 100 mg sitagliptin
Method: Studies were undertaken after an overnight fast following administration (8-10 hours prior to bile salt) of 100 mg sitagliptin, a DPP-4 inhibitor that protects GLP-1 from inactivation by proteolysis. […] The taurocholic acid was administered into the rectum by syringe in a total volume of 20 ml of 1% carboxymethyl cellulose gel. Each dose was administered on a different day with at least three days between doses.

[1] = test system: overnight-fasted Sprague Dawley rats
Method: Using a stainless steel dissolving vessel fitted with a propeller stirrer 1 gram of methyl cellulose is dissolved in 100 mL of purified water and stirred for 15 minutes. 12 syringes connected to gavage tubes are then each filled with 3 mL of the composition.
A 4×4 Latin Square design is used to monitor the effect of the different concentration of taurocholate on the food uptake of overnight-fasted Sprague Dawley rats. Each concentration is tested in triplicate with four rats used per replicate.
The ED50 for inhibition of food intake is obtained by plotting the normalizing the dose response for the anorectic effect of taurocholate to the control data as a log of taurocholate dose vs the percentage of control cumulative intake (FIG. 7).

[2] = test system: overnight-fasted Sprague Dawley rats; conditions: 500 mM sodium taurocholate, 3 mL rectal gel, 1% methyl cellulose, over 6 hours
Method: Using a stainless steel dissolving vessel fitted with a propeller stirrer 1 gram of methyl cellulose is dissolved in 100 mL of purified water and stirred for 15 minutes. 5 syringes connected to gavage tubes are then each filled with 3 mL of the composition.
The sodium taurocholate rectal gel described above was rectally administered to 6 conscious overnight-fasted subjects (e.g., Sprague Dawley rats) and the control rectal gel without the sodium taurocholate was rectally administered to 5 conscious overnight-fasted subjects (e.g., Sprague Dawley rats). Each rat was then exposed to pre-weighed food and the cumulative consumption of the food was determined over a 6 hour period by weighing the food after 30 minutes, 60 minutes, 120 minutes, 240 minutes and 360 minutes.

[3] = 50, 150, 500 mM rectal gels, 3 mL

## C[C@H](CCC(=O)O)[C@H]1CC[C@H]2[C@@H]3[C@H](O)C[C@@H]4C[C@H](O)CC[C@]4(C)[C@H]3C[C@H](O)[C@]12C [CA, cholic acid]
TGR5
  rank of potency (TGR5 agonist potency): > hyodeoxycholic acid (HDCA

## C[C@H](CCC(=O)NCCS(=O)(=O)O)[C@H]1CC[C@H]2[C@@H]3[C@H](O)C[C@@H]4C[C@H](O)CC[C@]4(C)[C@H]3C[C@H](O)[C@]12C [taurocholate, taurocholic acid]
Obese human diabetics
  circulating GLP-1 levels: increase
  circulating PYY levels: increase
[1]; [3]
  cumulative food intake, relation to quantity administered: dose dependently related
  time for which differences in food uptake are maintained: at least 24 hours
[1]; 24 hour intake, rectal gel
  ED50 for inhibition of food intake: 7.2 mmol/rat
[1]; at 1 hour, 3 mL doses, rectal gel
  ED50 for inhibition of food intake: 528 mM
[1]; at 1 hour, rectal gel
  ED50 for inhibition of food intake: 1.6 mmol/rat
[1]; rectal gel
  dose dependency for inhibition of intake between 8 and 24 hours: not different
[2]
  cumulative food intake compared to rats instilled with gel alone: reduced
